Four compounds from PubChem BioAssay (NCI) can be followed below.

“And” between values parts separate entries of the source, which are not always exact repeats. Equal entries are not always repeated.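 These data come from cells grown in 96-well plates and exposed to compound for 48 hours at five concentrations. The concentration for 50% growth inhibition is given as GI50. Definition used: TGI = concentration required for complete inhibition of growth.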

Among the test systems are LXFL 529 NSCLC; HOP-18 NSCLC; OVCAR-3 ovarian; DMS 273 small cell lung; KM20L2 colon; M19-MEL melanoma; XF 498 CNS; RXF-631 renal; DLD-1 colon; DMS 114 small cell lung; U251 CNS; HCT-15 colon; M14 melanoma; SNB-78 CNS.
What all share (assay): NCI tumour cell line growth inhibition, 48 h

Regarding `COC(=O)CC(C(C(C)=O)C(=O)OCc1ccccc1)N1C(=O)OC(c2ccccc2)C1c1ccccc1` (stereo not drawn), the TGI in the assay on LXFL 529 NSCLC is over 100 µM; with HOP-18 NSCLC, 51.1 µM and > 100 µM; in the assay with OVCAR-3 ovarian, 75.3 µM and > 100 µM; in the assay on DMS 273 small cell lung, over 100 µM; with KM20L2 colon, over 100 µM; with M19-MEL melanoma, over 100 µM. Besides, the TGI in the assay with XF 498 CNS, in the assay with RXF-631 renal, in the assay with DLD-1 colon, in the assay on DMS 114 small cell lung, with U251 CNS and in the assay with HCT-15 colon was over 100 µM each time. Further, the GI50 in the assay with HOP-18 NSCLC and in the assay with KM20L2 colon was over 100 µM throughout.

For the compound `O=C(NCc1ccc2ccc3cccnc3c2n1)c1ccc[n+](Cc2ccccc2)c1`, the TGI in the assay with LXFL 529 NSCLC, in the assay with HOP-18 NSCLC, in the assay on OVCAR-3 ovarian, in the assay with DMS 273 small cell lung, in the assay on KM20L2 colon and in the assay with M19-MEL melanoma was over 100 µM each time. Also, the TGI with XF 498 CNS, in the assay with RXF-631 renal, with DLD-1 colon, in the assay on DMS 114 small cell lung, in the assay with M14 melanoma and in the assay on U251 CNS was over 100 µM each time. In the assay on HCT-15 colon, this compound registered a TGI of over 100 µM.

Turning to `COc1cc2c(c(OC)c1OC)-c1ccc(SC)c(=O)cc1C(CC(=O)Oc1cccc(F)c1)C2` (stereo not drawn), the TGI was over 40.8 µM in the assay with LXFL 529 NSCLC; over 100 µM in the assay with HOP-18 NSCLC; 0.305 µM in the assay on OVCAR-3 ovarian; 0.225 µM with KM20L2 colon; 16.2 µM with M19-MEL melanoma; 36.8 µM with XF 498 CNS. Moreover, the TGI in the assay on RXF-631 renal is 20.7 µM; in the assay on SNB-78 CNS, over 100 µM; in the assay on DLD-1 colon, over 100 µM; with DMS 114 small cell lung, 1.07 µM; in the assay on U251 CNS, 0.85 µM; in the assay with HCT-15 colon, 1.97 µM.

Take `CC(=O)NC1=C(N)C(=O)c2ccccc2C1=O`: the TGI was over 100 µM with LXFL 529 NSCLC; over 100 µM in the assay on HOP-18 NSCLC; 61.9 µM with OVCAR-3 ovarian; over 100 µM in the assay on DMS 273 small cell lung; over 100 µM with KM20L2 colon; 41 µM with M19-MEL melanoma. The TGI in the assay on XF 498 CNS was over 100 µM; with RXF-631 renal, over 100 µM; with SNB-78 CNS it was over 100 µM; in the assay on DLD-1 colon, over 100 µM; with DMS 114 small cell lung, 28.1 µM; in the assay with M14 melanoma, over 100 µM. Further, the TGI in the assay on U251 CNS and in the assay on HCT-15 colon was over 100 µM throughout.
